Consider six compounds from patent US4777167A, “Pharmaceutically useful substituted thiacycloalkeno [3,2-b]pyridines, compositions and method of use” (Ortho Pharmaceutical Corporation, priority 1987, dated 1988).

One test concerns the target T1, calcium channels (Oryctolagus cuniculus, UniProt P15381).
T1 construct: from tissue; host or cells: heart of female New Zealand white rabbits, membrane fraction (42,000×g pellet)
As to the kind of experiment: Inhibition of nitrendipine binding (3H-nitrendipine displacement, rabbit heart membranes). Set-up: species or system rabbit (New Zealand white). As to conditions: Table II, 90 min, 4° C. The method, then:
(1) Inhibition of nitrendipine binding to calcium channels.
The assay for inhibition of nitrendipine binding follows the following procedure:
Female, New Zealand white rabbits (1-2 kg) are sacrificed by cervical dislocation, and the heart is immediately removed, cleaned, and chopped into small pieces. The tissue is homogenized in 5× volume of 0.05M Hepes buffer, pH 7.4. The homogenate is centrifuged at 4000×g for 10 minutes; the supernatant is recentrifuged at 42,000×g for 90 minutes. The resulting membrane pellet is resuspended (0.7 ml/g weight) in 0.05M Hepes, pH 7.4 and stored at -70° C. until used. Each tube of the binding assay contains ^3 H- nitrendipine (0.05-0.50 nM), buffer, membranes (0.10 ml), and test compound in a total volume of 1.0 ml. After 90 minutes at 4° C., the bound nitrendipine is separated from the unbound by filtration on Whatman GF/C fibers. After rinsing, the filters are dried and counted in a liquid scintillation counter.
Non-specific binding of ^3 H-nitrendipine (that amount bound in the presence of excess unlabelled nitrendipine) is subtracted from the total bound to obtain specifically bound radiolabeled nitrendipine. The amount of specifically bound nitrendipine in the presence of a test compound is compared to that amount bound in the absence of a compound. A percent displacement (or inhibition) can then be obtained.

For the next test, the system named is trachealis muscle. As to the kind of experiment: Inhibition of calcium dependent smooth muscle contraction (KCl-challenged trachea). The class given is cell-based, dog. As to conditions: Canis lupus familiaris, Table II; for inhibition at 0.1 µM: concentration 0.1 μM. The method, then: The test for inhibition of calcium dependent smooth muscle contraction is determined according to the following procedure:
Trachea from dogs sacrificed by excess KCl injection are stored overnight at 4° C. in oxygenated Krebs-Henseleit buffer. Tracheal rings, one cartilage segment wide (5-10 mm), are cut starting from the bronchial end. After cutting the cartilage, the trachealis muscle tissue is suspended in oxygenated Krebs-Henseleit buffer at 37° C. in a 25 ml tissue bath. After a 60 minutes equilibration period, the tissues are challenged with 10 μM carbachol. After 5 minutes the tissues are rinsed and allowed to rest 50 minutes. The tissues are then challenged with 50 mM KCl and, after 30 minutes, the contractions are quantitated. The tissues are then rinsed and reequilibrated for 50 minutes. Test compounds are then added for 10 minutes, and the tissue is rechallenged with 50 mMKcl. After 30 minutes, the contraction is recorded and used to determine the % inhibition of control.
The percent inhibition of smooth muscle contraction is calculated from response data before and after drug treatment. [formula] A rating is assigned to the compound depending upon the percent inhibition obtained.

A further test concerns Aorta Muscle. As to the kind of experiment: Inhibition of aorta muscle contraction. The note with it: Table II; concentration 0.1 μM. The class given is cell-based.
Setting [1] is: read-out: Inhibition Trachea Muscle Contraction % Inhibition.

T1 sequence (P15381 whole entry, other chains not shown): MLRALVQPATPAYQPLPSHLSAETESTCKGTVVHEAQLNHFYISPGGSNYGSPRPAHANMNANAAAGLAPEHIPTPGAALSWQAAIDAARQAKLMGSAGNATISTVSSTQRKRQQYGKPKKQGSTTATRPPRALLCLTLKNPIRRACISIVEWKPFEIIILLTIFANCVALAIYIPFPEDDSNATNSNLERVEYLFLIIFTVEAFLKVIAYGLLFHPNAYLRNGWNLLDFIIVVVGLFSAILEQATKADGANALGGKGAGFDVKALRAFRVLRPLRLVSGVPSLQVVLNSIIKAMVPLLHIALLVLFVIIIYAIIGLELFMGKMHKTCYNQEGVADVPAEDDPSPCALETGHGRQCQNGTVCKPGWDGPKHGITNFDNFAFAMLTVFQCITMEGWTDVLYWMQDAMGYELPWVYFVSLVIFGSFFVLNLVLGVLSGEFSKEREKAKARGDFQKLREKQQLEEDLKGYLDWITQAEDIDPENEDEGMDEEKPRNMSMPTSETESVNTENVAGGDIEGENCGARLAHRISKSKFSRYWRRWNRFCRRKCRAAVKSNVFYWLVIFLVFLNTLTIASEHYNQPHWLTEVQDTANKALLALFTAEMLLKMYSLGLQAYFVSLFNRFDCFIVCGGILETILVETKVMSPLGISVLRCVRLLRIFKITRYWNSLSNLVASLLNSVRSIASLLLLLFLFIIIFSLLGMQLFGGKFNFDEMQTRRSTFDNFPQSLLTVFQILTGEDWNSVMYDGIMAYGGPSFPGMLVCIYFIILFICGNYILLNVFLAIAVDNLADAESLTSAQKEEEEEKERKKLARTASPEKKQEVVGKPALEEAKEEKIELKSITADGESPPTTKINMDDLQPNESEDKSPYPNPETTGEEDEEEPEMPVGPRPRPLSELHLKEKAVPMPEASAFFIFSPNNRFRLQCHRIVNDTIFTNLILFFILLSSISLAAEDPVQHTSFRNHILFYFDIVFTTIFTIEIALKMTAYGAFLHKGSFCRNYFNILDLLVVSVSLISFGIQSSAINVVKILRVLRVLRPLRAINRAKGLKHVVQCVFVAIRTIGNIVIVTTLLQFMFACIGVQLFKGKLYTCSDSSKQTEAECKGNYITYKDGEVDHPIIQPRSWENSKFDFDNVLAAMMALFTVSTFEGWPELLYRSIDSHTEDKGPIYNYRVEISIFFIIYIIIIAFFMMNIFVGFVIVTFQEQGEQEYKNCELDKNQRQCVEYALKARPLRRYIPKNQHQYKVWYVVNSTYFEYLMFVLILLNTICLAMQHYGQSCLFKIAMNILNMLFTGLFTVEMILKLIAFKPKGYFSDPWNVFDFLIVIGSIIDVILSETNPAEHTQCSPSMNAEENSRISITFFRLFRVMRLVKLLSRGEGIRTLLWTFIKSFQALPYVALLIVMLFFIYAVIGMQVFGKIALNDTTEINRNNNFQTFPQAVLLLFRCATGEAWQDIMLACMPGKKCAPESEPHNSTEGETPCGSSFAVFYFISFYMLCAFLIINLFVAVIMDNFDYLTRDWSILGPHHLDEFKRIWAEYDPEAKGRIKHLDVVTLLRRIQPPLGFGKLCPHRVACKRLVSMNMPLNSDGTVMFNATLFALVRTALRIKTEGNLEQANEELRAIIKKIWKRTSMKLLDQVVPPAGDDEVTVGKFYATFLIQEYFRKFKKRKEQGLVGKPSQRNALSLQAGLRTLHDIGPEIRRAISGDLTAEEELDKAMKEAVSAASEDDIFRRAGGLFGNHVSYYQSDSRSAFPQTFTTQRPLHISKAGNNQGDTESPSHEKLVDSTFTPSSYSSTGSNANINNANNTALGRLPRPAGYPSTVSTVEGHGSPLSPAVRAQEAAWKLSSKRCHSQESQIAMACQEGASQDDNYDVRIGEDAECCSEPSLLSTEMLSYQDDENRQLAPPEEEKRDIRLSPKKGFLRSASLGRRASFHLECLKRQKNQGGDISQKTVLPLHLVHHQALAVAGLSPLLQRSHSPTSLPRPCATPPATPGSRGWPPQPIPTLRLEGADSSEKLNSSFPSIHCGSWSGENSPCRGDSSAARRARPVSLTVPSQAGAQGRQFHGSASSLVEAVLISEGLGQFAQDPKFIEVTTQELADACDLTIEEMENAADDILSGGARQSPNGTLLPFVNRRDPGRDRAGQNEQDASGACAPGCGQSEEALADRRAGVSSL
T1 sequence (P13806 27-960 partner limits assumed, other chains not shown): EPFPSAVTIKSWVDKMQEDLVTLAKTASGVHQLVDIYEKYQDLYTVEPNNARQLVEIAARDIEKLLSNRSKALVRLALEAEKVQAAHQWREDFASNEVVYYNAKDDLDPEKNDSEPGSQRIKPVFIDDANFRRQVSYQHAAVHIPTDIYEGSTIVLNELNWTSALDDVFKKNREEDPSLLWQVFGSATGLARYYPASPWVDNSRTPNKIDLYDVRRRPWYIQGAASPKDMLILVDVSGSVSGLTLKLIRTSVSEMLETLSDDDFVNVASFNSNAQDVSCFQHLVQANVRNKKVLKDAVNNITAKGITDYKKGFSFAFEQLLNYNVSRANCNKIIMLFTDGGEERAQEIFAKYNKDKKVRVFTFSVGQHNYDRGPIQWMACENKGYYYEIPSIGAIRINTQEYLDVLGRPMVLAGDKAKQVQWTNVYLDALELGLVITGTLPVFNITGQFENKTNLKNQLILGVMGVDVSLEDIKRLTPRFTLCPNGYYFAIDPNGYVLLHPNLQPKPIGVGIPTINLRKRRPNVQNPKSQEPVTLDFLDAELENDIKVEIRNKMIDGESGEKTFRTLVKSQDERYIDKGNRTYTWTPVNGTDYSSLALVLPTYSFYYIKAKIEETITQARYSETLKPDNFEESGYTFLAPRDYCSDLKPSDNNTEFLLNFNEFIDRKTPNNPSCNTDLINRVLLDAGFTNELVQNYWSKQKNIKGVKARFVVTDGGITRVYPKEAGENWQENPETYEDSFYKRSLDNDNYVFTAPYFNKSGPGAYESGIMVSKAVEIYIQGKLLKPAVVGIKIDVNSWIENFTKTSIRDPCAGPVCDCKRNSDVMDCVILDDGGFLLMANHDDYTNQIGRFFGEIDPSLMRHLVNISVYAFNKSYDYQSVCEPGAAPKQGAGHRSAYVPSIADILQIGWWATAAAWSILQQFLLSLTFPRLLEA
T1 sequence (P13806 961-1106 partner limits assumed, other chains not shown): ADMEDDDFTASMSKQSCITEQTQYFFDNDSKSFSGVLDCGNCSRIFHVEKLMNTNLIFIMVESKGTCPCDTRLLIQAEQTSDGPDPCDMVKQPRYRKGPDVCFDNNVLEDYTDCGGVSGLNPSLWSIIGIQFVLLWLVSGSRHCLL

Take `CC1=C(C(=O)OCCN(C)Cc2ccccc2)C(c2ccccc2C(F)(F)F)C2=C(CCCCS2(=O)=O)N1` (stereo not drawn) [4 2-CF3C6 H4, N-Benzyl-N-methylaminoethyl 2,4,5,6,9-hexahydro-7-methyl-9-(2-trifluoromethylphenyl)-1,1-dioxothiacyclohepteno[3,2-b]pyridine-8-carboxylate]: the IC50 (commonly the concentration that gives 50% inhibition) at calcium channels was 160 nM. Also, the inhibition (usually the drop in the measured response relative to a control, in per cent) at 0.1 µM in the test on trachealis muscle (setting [1]) amounted to 64%; in the test with Aorta Muscle, 85%.
For `CC1=C(C(=O)OCCc2ccccn2)C(c2cccc([N+](=O)[O-])c2)C2=C(CCCCCS2(=O)=O)N1` (stereo not drawn) [5 3-NO2C6 H4 drawing 10] the same measures were 65 nM, 53% and 48%.
With `CC1=C(C(=O)OCCN(C)Cc2ccccc2)C(c2cccc(C(F)(F)F)c2)C2=C(CCCCS2(=O)=O)N1` (stereo not drawn) [4 3-CF3C6 H4], the IC50 at calcium channels amounted to 2800 nM. Also, the inhibition at 0.2 µM in the test with trachealis muscle (concentration 0.2 μM, read-out: Inhibition Trachea Muscle Contraction % Inhibition) is 37%. Further, the inhibition at 0.1 µM in the test with Aorta Muscle was 44%.
Take `CC1=C(C(=O)OCCN2CCc3ccccc32)C(c2cccc([N+](=O)[O-])c2)C2=C(CCCCS2(=O)=O)N1` (stereo not drawn) [4 3-NO2C6 H4 drawing 9]: the 50% inhibitory concentration (IC50) at calcium channels amounted to 100 nM. Moreover, the inhibition at 1 µM in the test with trachealis muscle (concentration 1.0 μM) was determined as 56%. The same compound displayed an inhibition at 0.1 µM in the test with Aorta Muscle of 80%.
As to `CC1=C(C(=O)OCCN(C)Cc2ccccc2)C(c2c(F)c(F)c(F)c(F)c2F)C2=C(CCCCCS2(=O)=O)N1` (stereo not drawn) [5 C6 F5, N-Benzyl-N-methylaminoethyl 10-(2,3,4,5,6-pentafluorophenyl)-3,4,5,6,7,10-hexahydro-8-methyl-1,1-dioxo-2H-thiacycloocteno[3,2-b]pyridine-9-carboxylate], the IC50 at calcium channels amounted to 87 nM. For the same compound, the inhibition at 0.1 µM with trachealis muscle (setting [1]) is 50%; in the test on Aorta Muscle, 70%.
On the same counts, the results for `CC1=C(C(=O)OCCN(C)c2ccccc2)C(c2c(F)c(F)c(F)c(F)c2F)C2=C(CCCCCS2(=O)=O)N1` (stereo not drawn) [5 C6 F5 CH2 CH2 NCH3 C6 H5, N-Methyl-N-phenylaminoethyl 10-(2,3,4,5,6-pentafluorophenyl)-3,4,5,6,7,10-hexahydro-8-methyl-1,1-dioxothiacycloocteno[3,2-b]pyridine-9-carboxylate] are 18 nM, 47% and 63%.
